Laboratory results reported in patent US20080280920A1, “Plasminogen Activator Inhibitor-1 Inhibitors” (priority 2005, published 2008).

Key:
[1] = tested on: 60 different human cancer cell lines; assay: NCI in vitro anticancer screen (whole panel); assay type: cell-based
[2] = tested on: K-562; assay: NCI anticancer screen, K-562; assay type: cell-based, human; conditions: K-562, Leukemia, 48 h
[3] = tested on: SR; assay: NCI anticancer screen, SR; assay type: cell-based, human; conditions: Leukemia, 48 h
[4] = tested on: A549/ATCC; assay: NCI anticancer screen, A549/ATCC; assay type: cell-based, human; conditions: Non-Small Cell Lung, 48 h
[5] = tested on: NCI-H23; assay: NCI anticancer screen, NCI-H23; assay type: cell-based, human; conditions: NCI-H23, Non-Small Cell Lung, 48 h
[6] = tested on: NCI-H322M; assay: NCI anticancer screen, NCI-H322M; assay type: cell-based, human; conditions: Non-Small Cell Lung, 48 h
[7] = tested on: COLO 205; assay: NCI anticancer screen, COLO 205; assay type: cell-based, human; conditions: COLO 205, Colon, 48 h
[8] = tested on: HCT-116; assay: NCI anticancer screen, HCT-116; assay type: cell-based, human; conditions: HCT-116, Colon, 48 h
[9] = tested on: HCT-15; assay: NCI anticancer screen, HCT-15; assay type: cell-based, human; conditions: HCT-15, Colon, 48 h
[10] = tested on: HT29; assay: NCI anticancer screen, HT29; assay type: cell-based, human; conditions: HT29, Colon, 48 h
[11] = tested on: KM12; assay: NCI anticancer screen, KM12; assay type: cell-based, human; conditions: KM12, Colon, 48 h
[12] = tested on: SF-295; assay: NCI anticancer screen, SF-295; assay type: cell-based, human; conditions: SF-295, CNS, 48 h
[13] = tested on: SF-539; assay: NCI anticancer screen, SF-539; assay type: cell-based, human; conditions: SF-539, CNS, 48 h
[14] = tested on: U251; assay: NCI anticancer screen, U251; assay type: cell-based, human; conditions: U251, CNS, 48 h
[15] = tested on: MALME-3M; assay: NCI anticancer screen, MALME-3M; assay type: cell-based, human; conditions: Melanoma, 48 h
[16] = tested on: M14; assay: NCI anticancer screen, M14; assay type: cell-based, human; conditions: M14, Melanoma, 48 h
[17] = tested on: SK-MEL-5; assay: NCI anticancer screen, SK-MEL-5; assay type: cell-based, human; conditions: SK-MEL-5, Melanoma, 48 h
[18] = tested on: UACC-257; assay: NCI anticancer screen, UACC-257; assay type: cell-based, human; conditions: UACC-257, Melanoma, 48 h
[19] = tested on: UACC-62; assay: NCI anticancer screen, UACC-62; assay type: cell-based, human; conditions: UACC-62, Melanoma, 48 h
[20] = tested on: OVCAR-8; assay: NCI anticancer screen, OVCAR-8; assay type: cell-based, human; conditions: OVCAR-8, Ovarian, 48 h
[21] = tested on: SK-OV-3; assay: NCI anticancer screen, SK-OV-3; assay type: cell-based, human; conditions: SK-OV-3, Ovarian, 48 h
[22] = tested on: CAKI-1; assay: NCI anticancer screen, CAKI-1; assay type: cell-based, human; conditions: CAKI-1, Renal, 48 h
[23] = tested on: SN12C; assay: NCI anticancer screen, SN12C; assay type: cell-based, human; conditions: Renal, 48 h
[24] = tested on: DU-145; assay: NCI anticancer screen, DU-145; assay type: cell-based, human; conditions: DU-145, Prostate, 48 h
[25] = tested on: MCF7; assay: NCI anticancer screen, MCF7; assay type: cell-based, human; conditions: MCF7, Breast, 48 h
[26] = tested on: NCI/ADR-RES; assay: NCI anticancer screen, NCI/ADR-RES; assay type: cell-based, human; conditions: Breast, 48 h
[27] = tested on: MDA-MB-231/ATCC; assay: NCI anticancer screen, MDA-MB-231/ATCC; assay type: cell-based, human; conditions: Breast, 48 h
[28] = tested on: HS 578T; assay: NCI anticancer screen, HS 578T; assay type: cell-based, human; conditions: Breast, 48 h
[29] = tested on: MDA-MB-435; assay: NCI anticancer screen, MDA-MB-435; assay type: cell-based, human; conditions: MDA-MB-435, Breast, 48 h
[30] = tested on: BT-549; assay: NCI anticancer screen, BT-549; assay type: cell-based, human; conditions: BT-549, Breast, 48 h
[31] = tested on: T-47D; assay: NCI anticancer screen, T-47D; assay type: cell-based, human; conditions: Breast, 48 h
[32] = Homo sapiens, read-out: LC50 (the source's name)

## COc1cc(CNCC2CCN(C(=O)OC(C)(C)C)CC2)cc(CN2CCN(c3ccccn3)CC2)c1O [Compound Q012132, 2-Methoxy-4-({[(N-t-butyloxycarbonylpiperidin-4-yl)methyl]amino}methyl)-6-[(4-pyridin-2-ylpiperazin-1-yl)methyl]phenol]
[1]; NCI screen, 48 h
  growth and proliferation of human primary cancer cell-lines (in words): inhibited growth and proliferation
[1]; low micromolar concentrations, leukemia, melanoma, colon and central nervous system cell-lines
  cytostatic / cytotoxic effects on human cancer cell-lines (in words): cytostatic and cytotoxic effects
[2]; Homo sapiens, K562
  GI50: 5.21 µM
[2]; Homo sapiens, K562, read-out: LC50 (the source's name)
  CC50: 73.5 µM
[2]
  TGI: 19.6 µM
[3]; Homo sapiens
  GI50: 11 µM
[3]; [32]
  CC50: 84.4 µM
[3]
  TGI: 30.5 µM
[4]; Homo sapiens
  GI50: 31.2 µM
  LC50: > 100 µM
[4]
  TGI: >100 µM
[5]; Homo sapiens
  GI50: 29.6 µM
[5]; [32]
  CC50: > 100 µM
[5]
  TGI: >100 µM
[6]; Homo sapiens
  GI50: 37.8 µM
[6]; [32]
  CC50: > 100 µM
[6]
  TGI: >100 µM
[7]
  TGI: 34.8 µM
[7]; Homo sapiens
  GI50: 16.8 µM
[7]; [32]
  CC50: 72.1 µM
[8]
  TGI: 22.6 µM
[8]; Homo sapiens
  GI50: 10.8 µM
  LC50 (50% lethal concentration): 47.6 µM
[9]
  TGI: 36.9 µM
[9]; Homo sapiens
  GI50: 16.8 µM
[9]; [32]
  CC50: 80.8 µM
[10]
  TGI: 16.7 µM
[10]; Homo sapiens, HT-29
  GI50: 3.11 µM
[10]; Homo sapiens, HT-29, read-out: LC50 (the source's name)
  CC50: 63 µM
[11]; Homo sapiens
  GI50: 31.6 µM
[11]; [32]
  CC50: > 100 µM
[11]
  TGI: >100 µM
[12]; Homo sapiens
  GI50: 19.3 µM
[12]; [32]
  CC50: 89 µM
[12]
  TGI: 41.4 µM
[13]; Homo sapiens
  GI50: 14.6 µM
[13]; [32]
  CC50: 54.6 µM
[13]
  TGI: 28.2 µM
[14]; Homo sapiens, U-251
  GI50: 15.1 µM
[14]; Homo sapiens, U-251, read-out: LC50 (the source's name)
  CC50: 55.8 µM
[14]
  TGI: 29.1 µM
[15]; Homo sapiens
  GI50: 15.7 µM
[15]; [32]
  CC50: 65.5 µM
[15]
  TGI: 32.0 µM
[16]; Homo sapiens
  GI50: 5.8 µM
[16]; [32]
  CC50: 41.9 µM
[16]
  TGI: 17.5 µM
[17]; Homo sapiens
  GI50: 13.1 µM
[17]; [32]
  CC50: 51.5 µM
[17]
  TGI: 26.0 µM
[18]; Homo sapiens
  GI50: 18.4 µM
[18]; [32]
  CC50: > 100 µM
[18]
  TGI: 45.7 µM
[19]; Homo sapiens
  GI50: 17.2 µM
[19]; [32]
  CC50: 64.3 µM
[19]
  TGI: 33.3 µM
[20]; Homo sapiens
  GI50: 22.3 µM
[20]; [32]
  CC50: > 100 µM
[20]
  TGI: 61.8 µM
[21]; Homo sapiens
  GI50: 29.4 µM
[21]; [32]
  CC50: > 100 µM
[21]
  TGI: 98.8 µM
[22]
  TGI: 51.7 µM
[22]; Homo sapiens
  GI50: 22.8 µM
[22]; [32]
  CC50: > 100 µM
[23]; [32]
  CC50: > 100 µM
[23]
  TGI: >100 µM
[24]
  TGI: >100 µM
[24]; Homo sapiens
  GI50: 38.8 µM
[24]; [32]
  CC50: > 100 µM
[25]; Homo sapiens
  GI50: 18.6 µM
[25]; [32]
  CC50: 73 µM
[25]
  TGI: 36.9 µM
[26]
  TGI: 79.2 µM
[26]; Homo sapiens
  GI50: 21.4 µM
[26]; [32]
  CC50: > 100 µM
[27]
  TGI: 41.0 µM
[27]; Homo sapiens
  GI50: 17.8 µM
[27]; [32]
  CC50: 94.3 µM
[28]
  TGI: 38.2 µM
[28]; Homo sapiens
  GI50: 16.4 µM
[28]; [32]
  CC50: 88.6 µM
[29]; Homo sapiens
  GI50: 18.2 µM
[29]; [32]
  CC50: 73.1 µM
[29]
  TGI: 36.4 µM
[30]
  TGI: 28.9 µM
[30]; Homo sapiens
  GI50: 14.6 µM
[30]; [32]
  CC50: 57.1 µM
[31]
  TGI: 44.4 µM
[31]; Homo sapiens, T47D
  GI50: 16.2 µM
[31]; Homo sapiens, T47D, read-out: LC50 (the source's name)
  CC50: > 100 µM
